From patent US9617258B2, “Pyrrolo[2,3-d]pyrimidinyl, pyrrolo[2,3-b]pyrazinyl and pyrrolo[2,3-d]pyridinyl acrylamides” (Pfizer Inc., priority 2013, dated 2017)

Experiment: Stability of JAK3 covalent inhibitors in human whole blood;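 note: parent compound remaining over incubation time quantified by LC-MS/MS as peak area ratio against an internal standard, using pooled K2-EDTA blood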
Format: in vitro ADME
Conditions: both sexes, whole blood, 37° C., read-out: Human blood stability t1/2

| Structure (SMILES) | half-life at 1 μM |
| --- | --- |
| C=CC(=O)N1CC[C@H](Nc2cnc3[nH]cc(C(=O)NC(C)C)c3n2)[C@H](OC)C1 [Example 317, 2-{[(3R,4S)-1-acryloyl-3-methoxypiperidin-4-yl]amino}-N-(propan-2-yl)-5H-pyrrolo[2,3-b]pyrazine-7-carboxamide] | > 6 h |
| C=CC(=O)N1C[C@H](Nc2ncnc3[nH]ccc23)CC[C@@H]1CC (single isomer, unassigned) [Example 9] | > 6 h |
| C=CC(=O)N1C[C@H](O)C[C@@H](Nc2ncnc3[nH]ccc23)C1 [Example 60, 1-((3R,5R)-3-((7H-Pyrrolo[2,3-d]pyrimidin-4-yl)amino)-5-hydroxypiperidin-1-yl)prop-2-en-1-one] | > 6 h |
| C=CC(=O)N1CCC(Nc2cnc3[nH]cc(C(=O)NC4CCC(F)(F)C4)c3n2)CC1 (centres unmarked) [Example 259, 2-[(1-acryloylpiperidin-4-yl)amino]-N-(3,3-difluorocyclopentyl)-5H-pyrrolo[2,3-b]pyrazine-7-carboxamide] | > 6 h |
| C=CC(=O)N1CC[C@@H](Nc2cnc3[nH]cc(C(=O)NC(C)C)c3n2)[C@@H](OC)C1 [Example 302, 2-{[(3S,4R)-1-acryloyl-3-methoxypiperidin-4-yl]amino}-N-(propan-2-yl)-5H-pyrrolo[2,3-b]pyrazine-7-carboxamide] | > 6 h |
| C=CC(=O)N1CCC[C@@H](Nc2ncnc3[nH]cc(-c4cnn(C)c4)c23)C1 [Example 28, 1-[(3R)-3-{[5-(1-methyl-1H-pyrazol-4-yl)-7H-pyrrolo[2,3-d]pyrimidin-4-yl]amino}piperidin-1-yl]prop-2-en-1-one] | > 6 h |
| C=CC(=O)N1CC[C@@H](Nc2cnc3[nH]cc(C(=O)NC(C)C)c3n2)[C@@H](F)C1 [Example 320, 2-{[(3S,4R)-1-acryloyl-3-fluoropiperidin-4-yl]amino}-N-(propan-2-yl)-5H-pyrrolo[2,3-b]pyrazine-7-carboxamide] | 3.17 h |
| C=CC(=O)N1CCC[C@@H](Nc2ncnc3[nH]cc(CCOC)c23)C1 [Example 46, 1-[(3R)-3-{[5-(2-methoxyethyl)-7H-pyrrolo[2,3-d]pyrimidin-4-yl]amino}piperidin-1-yl]prop-2-en-1-one] | > 5.74 h |
| C=CC(=O)N1CCC[C@@H](Nc2ncnc3[nH]cc(-c4cncc(OC)c4)c23)C1 [Example 24, 1-[(3R)-3-{[5-(5-methoxypyridin-3-yl)-7H-pyrrolo[2,3-d]pyrimidin-4-yl]amino}piperidin-1-yl]prop-2-en-1-one] | > 6 h |
| C=CC(=O)N1CCC[C@@H](Nc2ncnc3[nH]cc(-c4ccc(OCC)nc4)c23)C1 [Example 33, 1-[(3R)-3-{[5-(6-ethoxypyridin-3-yl)-7H-pyrrolo[2,3-d]pyrimidin-4-yl]amino}piperidin-1-yl]prop-2-en-1-one] | > 6 h |
| C=CC(=O)N1CCC[C@@H](Nc2ncnc3[nH]cc(-c4ccc(C(=O)N(C)C)cc4)c23)C1 [Example 27, 4-(4-{[(3R)-1-acryloylpiperidin-3-yl]amino}-7H-pyrrolo[2,3-d]pyrimidin-5-yl)-N,N-dimethylbenzamide] | 0.767 h |
| C=CC(=O)N1CCCC(C)(Nc2ncnc3[nH]ccc23)C1 (centres unmarked) [Example 71, 1-(3-((7H-Pyrrolo[2,3-d]pyrimidin-4-yl)amino)-3-methylpiperidin-1-yl)prop-2-en-1-one] | 3.82 h |
| C=CC(=O)N1CCC[C@@H](Nc2ncnc3[nH]ccc23)C1 [Example 12, (R)-1-(3-((7H-Pyrrolo[2,3-d]pyrimidin-4-yl)amino)piperidin-1-yl)prop-2-en-1-one] | > 5.53 h |
| C=CC(=O)N1CC[C@@H](F)[C@@H](Nc2ncnc3[nH]ccc23)C1 [Example 54, 1-((3S,4R)-3-((7H-pyrrolo[2,3-d]pyrimidin-4-yl)amino)-4-fluoropiperidin-1-yl)prop-2-en-1-one] | 3.5 h |
| C=CC(=O)N1CC[C@@H](Nc2cnc3[nH]cc(C(=O)NC(C)C)c3n2)[C@H](O)C1 [Example 196, 2-{[(3R,4R)-1-acryloyl-3-hydroxypiperidin-4-yl]amino}-N-(propan-2-yl)-5H-pyrrolo[2,3-b]pyrazine-7-carboxamide] | > 6 h |
| C=CC(=O)N1CCC(Nc2cnc3[nH]cc(C(=O)N[C@H]4CC[C@@H](F)C4)c3n2)CC1 [Example 244, 2-[(1-acryloylpiperidin-4-yl)amino]-N-[(1S,3R)-3-fluorocyclopentyl]-5H-pyrrolo[2,3-b]pyrazine-7-carboxamide] | 4.73 h |
| C=CC(=O)N1CCC[C@@H](Nc2ncnc3[nH]cc(Cl)c23)C1 [Example 3, (R)-1-(3-((5-chloro-7H-pyrrolo[2,3-d]pyrimidin-4-yl)amino)piperidin-1-yl)prop-2-en-1-one] | 3.2 h |
| C=CC(=O)N1CCC(Nc2cnc3[nH]cc(C(=O)N[C@@H](C)CCC)c3n2)CC1 [Example 267, 2-[(1-acryloylpiperidin-4-yl)amino]-N-[(2S)-pentan-2-yl]-5H-pyrrolo[2,3-b]pyrazine-7-carboxamide] | 3.73 h |
| C=CC(=O)N1CC[C@@H](CNc2cnc3[nH]cc(C(=O)NC(C)C)c3n2)C1 [Example 191, 2-({[(3S)-1-acryloylpyrrolidin-3-yl]methyl}amino)-(N-propan-2-yl)-5H-pyrrolo[2,3-b]pyrazine-7-carboxamide] | > 6 h |
| C=CC(=O)N1CCC(Nc2cnc3[nH]cc(C(=O)NCC4CCCC4)c3n2)CC1 [Example 270, 2-[(1-acryloylpiperidin-4-yl)amino]-N-(cyclopentylmethyl)-5H-pyrrolo[2,3-b]pyrazine-7-carboxamide] | 3.87 h |
| C=CC(=O)N1CCC(Nc2cnc3[nH]cc(C(=O)N[C@H](C)CCC)c3n2)CC1 [Example 274, 2-[(1-acryloylpiperidin-4-yl)amino]-N-[(2R)-pentan-2-yl]-5H-pyrrolo[2,3-b]pyrazine-7-carboxamide] | > 6 h |
| C=CC(=O)N1CCC(Nc2cnc3[nH]cc(C(=O)NCC(C)(C)C)c3n2)CC1 [Example 271, 2-[(1-acryloylpiperidin-4-yl)amino]-N-(2,2-dimethylpropyl)-5H-pyrrolo[2,3-b]pyrazine-7-carboxamide] | 2.28 h |
| C=CC(=O)N1C[C@@H]2C(Nc3cnc4[nH]cc(C(=O)NC(C)C)c4n3)[C@@H]2C1 (stereo partly drawn) [Example 189, 2-{[(1R,5S,6s)-3-acryloyl-3-azabicyclo[3.1.0]hex-6-yl]amino}-N-(propan-2-yl)-5H-pyrrolo[2,3-b]pyrazine-7-carboxamide] | > 6 h |
| C=CC(=O)N1CC[C@H](C)[C@@H](Nc2ncnc3[nH]ccc23)C1 [Example 11, 1-((3R,4S)-3-((7H-pyrrolo[2,3-d]pyrimidin-4-yl)amino)-4-methylpiperidin-1-yl)prop-2-en-1-one] | > 4.93 h |
| C=CC(=O)N1CCC(Nc2cnc3[nH]cc(C(=O)NCCCC(F)(F)F)c3n2)CC1 [Example 240, 2-[(1-acryloylpiperidin-4-yl)amino]-N-(4,4,4-trifluorobutyl)-5H-pyrrolo[2,3-b]pyrazine-7-carboxamide] | 3.92 h |
| C=CC(=O)N1CCC(Nc2cnc3[nH]cc(C(=O)NC45CC(C4)C5)c3n2)CC1 [Example 281, 2-[(1-acryloylpiperidin-4-yl)amino]-N-(bicyclo[1.1.1]pent-1-yl)-5H-pyrrolo[2,3-b]pyrazine-7-carboxamide] | 5.77 h |
